The subject of one series is COLO 205. Kind of series: CellTiter-Glo, NCI60 panel. Format: cell-based, human. The conditions noted are these: Colon; for GI50: Homo sapiens. From the text:
(§1) Identification of tumor types that are the most sensitive to the KSP inhibitors of the present invention can be accomplished using an unbiased approach that uses several cell-based assays. The assays chosen were as follows: • CellTiter-Glo®. This is an assay designed to measure ATP concentration in a cell culture, and can be correlated to cell number. Briefly CellTiter-Glo® (Promega Corporation) is a homogeneous method using the single CellTiter-Glo® reagent to detect ATP wherein ATP in the assay drives the activity of a thermostable luciferase to create a luminescent signal which can then be measured and correlated with the number of viable cells. Briefly, for adherent cells, 1,000 to 5,000 cells/well were plated in 96-well plates (100 μl/well) and let to adhere for 24 hours before being treated with drug. For non-adherent cells, 1,000 to 10,000 cells/well were plated in 96-well plates (100 μl/well) and immediately treated with drug. Drug dilutions were prepared in DMSO at 1000 times the final concentration. These dilutions were then diluted 1/100 in growth media before being added to the cells (11 μl/well) to achieve the desired final concentration. After 48 h in a 37° C. tissue culture incubator, the plates were processed for the CellTiter-Glo®assay according to the manufacturer's instructions. Protocol for a 72 hour cell proliferation assay: The 72 hour assay was performed the same way as the 48 hour assay except for the following modifications: For adherent cells, 500 to 5,000 cells/well were plated in 96-well plates (90 μl/well cell growth media) and left to adhere for 24 hours before being treated with drug. For non-adherent cells, 1,000 to 10,000 cells/well were plated in 96-well plates (90 μl/well cell growth media) and immediately treated with drug. Data values presented represent the concentration of test compound required for a 50% reduction in growth. • LDH release. The Cytotoxicity Detection KitPLUS (LDH) assay (Roche Diagnostics, Manheim, Germany) measures the amount of LDH released in the media by dying cells; LDH catalyzes the conversion of lactate into pyruvate. The enzymatic reaction is coupled to a chemical reaction that uses a tetrazolium salt to form a formazan that is red and can be detected by its absorbance at 490 nm. This assay measures the amount of cell death after drug treatment. Cells were plated at 10,000 cells/well in 96-well plates (100 μl/well). Adherent cells were let to adhere for 24 hours before being treated with drug, whereas non-adherent cells were immediately treated with drug. Drug dilutions were prepared in DMSO at 1000 times the final concentration. These dilutions were then diluted 1/100 in growth media before being added to the cells (11 μl/well) to achieve the desired final concentration. After 48 h in a 37° C. tissue culture incubator, the plates were processed for the Cytotoxicity Detection KitPLUS (LDH) assay according to the manufacturer's instructions. The media only values were subtracted from all the data points before analysis. Data values presented correspond to the compound concentration wherein LDH output is at half maximal level. • Caspase-Glo® 3/7. The Caspase-Glo® 3/7 Assay (Promega Corporation) is a homogeneous luminescent assay that measures caspase-3/7 activities. The assay provides a proluminescent caspase-3/7 DEVD-aminoluciferin substrate and a thermostable luciferase in a reagent optimized for caspase-3/7 activity, luciferase activity and cell lysis. Adding the single Caspase-Glo® 3/7 Reagent results in cell lysis, followed by caspase cleavage of the substrate. This liberates free aminoluciferin, which is consumed by the luciferase, generating a luminescent signal. The signal is proportional to caspase-3/7 activity. Data values presented correspond to the compound concentration wherein caspase 3/7 activity is at half maximal level. […]

A further series relates to HCT-116. Put plainly: CellTiter-Glo, NCI60 panel. Format: cell-based, human. The note with it: Colon; for GI50: Homo sapiens.
Source text: as §1
For orientation: Cellular ATP, detected with luciferase, serves as a proxy for viable cell number.

For another series, the system named is HCT-15. Kind of series: CellTiter-Glo, NCI60 panel. The note with it: Colon; for GI50: Homo sapiens. Format: cell-based, human.
Source text: as §1

Another series concerns HT29. Put plainly: CellTiter-Glo, NCI60 panel. Format: cell-based, human. The conditions noted are these: for GI50: Homo sapiens, HT-29, Colon.
Source text: as §1

The next series relates to T-47D. Kind of series: CellTiter-Glo, NCI60 panel. Format: cell-based, human. The note with it: Breast; for GI50: Homo sapiens, T47D.
Source text: as §1

Series [1] can be described thus: KMS-11-luc disseminated disease model, host response. Format: in vivo, mouse. The conditions noted are these: q4d × 3, i.v. As to the method: Experiments were performed using immunodeficient SCID-Beige female mice approximately 7-8 weeks old (Charles River Laboratories, Wilmington, Mass.). […] Routine animal care and assurance of welfare were as described above. […] Doses were adjusted to each animal's body weight. […] Approximately 10 minutes prior to imaging, mice were injected i.p. with 150 mg/kg luciferin (Xenogen Corporation, Alameda, Calif.), followed by anesthetization with isoflurane. Photon emission was measured using a charge coupled device camera in the IVIS imaging system (Xenogen Corporation). Briefly, a gray-scale image of the mice was captured, followed by an overlay of a bioluminescence map representing the spatial distribution of photons detected from cleaved luciferin in the cancer cells expressing luciferase. Signal intensity was quantified using a customized version of the IGOR Pro version 4.09A Software (WaveMetrics, Inc., Lake Oswego, Oreg.) called Living Image version 2.50.2 (Xenogen). The sum of all detected photon counts from the right+left legs were determined. Bioluminescence of cancer cells in the animals was measured by imaging on designated days until the first mice developed hind limb paralysis due to disease burden, the main end point for when to humanely euthanize mice. The day of euthanasia for each mouse was recorded, and the remaining percentage of mice surviving was plotted over time (Kaplan-Meier survival analysis). P values were calculated using the log-rank test (GraphPad Prism 4.0 software) to assess differences between treated and control groups (p<0.05 was considered significant). […] Data analysis was as described above.

[2] abbreviates: GI50 in nM, read-out: Log(GI50) (converted).

Where two headings read alike, the source gives them in different places.

Consider 1 compound from US8252832B2, “Kinesin inhibitors as cancer therapeutics” (Novartis AG, priority 2007, dated 2012).

As to `CC(C)(C)[C@H](c1nc(-c2cc(F)ccc2F)cn1Cc1ccccc1)N(CC[C@H](N)CF)C(=O)CO` [Compound IIa], the “Differential vs mean Log(GI50)” value is on record as −0.669 in the series with COLO 205; 1.191 in the series with HCT-116; 0.754 with HCT-15; −0.669 with HT29 (Colon); −0.669 with T-47D. Besides, the concentration for 50% growth inhibition (GI50) with COLO 205 (setting [2]) was 10 nM; in the series on COLO 205 (read-out: GI50), 10 nM; with HCT-116 (setting [2]), 0.138 nM; in the series with HCT-116 (read-out: GI50), 0.138 nM; in the series with HCT-15 (setting [2]), 0.378 nM; with HCT-15 (read-out: GI50), 0.378 nM. The GI50 with HT29 (setting [2]), in the series with HT29 (read-out: GI50), with T-47D (setting [2]) and in the series with T-47D (read-out: GI50) was 10 nM throughout. Also, the “Max. Δ body weight (Day)” value in series [1] (0.25 mg/kg, D14) was 2.1 ± 1.23 g; in series [1] (0.5 mg/kg, D14), 2.5 ± 0.23 g; in series [1] (1 mg/kg, D13), -0.74 ± 0.75 g. In addition, the “Max. Δ body weight (Day) (%)” value in series [1] (0.25 mg/kg, D14) was 5.0 ± 2.0%; in series [1] (0.5 mg/kg, D14), 6.7 ± 1.1%; in series [1] (1 mg/kg, D13), −3.3 ± 4.0%.

By GI50 is commonly meant the concentration at which growth is held to half of that of the control.
